The values that follow come from patent US9150580B2, “Substituted imidazopyridines and the use thereof” (BAYER INTELLECTUAL PROPERTY GMBH, priority 2011, dated 2015).

Structures are written as SMILES. Structures can show the parent of a compound that is named as a salt.

Assay [1] deals with T1, recombinant guanylate cyclase reporter cell line (Rattus norvegicus, UniProt P19686+P20595).
T1 construct: expressed in transfected cells
T1 sequence (P19686 1-690): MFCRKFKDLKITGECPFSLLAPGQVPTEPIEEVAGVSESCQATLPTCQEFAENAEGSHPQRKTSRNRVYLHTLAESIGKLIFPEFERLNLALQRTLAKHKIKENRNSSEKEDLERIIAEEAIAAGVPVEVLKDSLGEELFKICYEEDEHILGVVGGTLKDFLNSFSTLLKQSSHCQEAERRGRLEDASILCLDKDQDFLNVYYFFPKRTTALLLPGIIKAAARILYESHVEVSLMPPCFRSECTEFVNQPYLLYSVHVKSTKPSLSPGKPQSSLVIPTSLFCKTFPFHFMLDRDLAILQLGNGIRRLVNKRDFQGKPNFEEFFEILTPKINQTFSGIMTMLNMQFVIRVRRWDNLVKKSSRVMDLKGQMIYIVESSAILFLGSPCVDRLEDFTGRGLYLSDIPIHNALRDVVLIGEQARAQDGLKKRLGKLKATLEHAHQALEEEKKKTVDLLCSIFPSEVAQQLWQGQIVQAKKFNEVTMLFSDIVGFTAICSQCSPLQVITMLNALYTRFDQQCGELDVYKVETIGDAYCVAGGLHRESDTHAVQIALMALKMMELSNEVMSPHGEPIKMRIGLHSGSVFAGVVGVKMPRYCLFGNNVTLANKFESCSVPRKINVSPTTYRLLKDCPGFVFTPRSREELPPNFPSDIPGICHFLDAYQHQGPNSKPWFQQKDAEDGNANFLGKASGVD
T1 sequence (P20595 1-619): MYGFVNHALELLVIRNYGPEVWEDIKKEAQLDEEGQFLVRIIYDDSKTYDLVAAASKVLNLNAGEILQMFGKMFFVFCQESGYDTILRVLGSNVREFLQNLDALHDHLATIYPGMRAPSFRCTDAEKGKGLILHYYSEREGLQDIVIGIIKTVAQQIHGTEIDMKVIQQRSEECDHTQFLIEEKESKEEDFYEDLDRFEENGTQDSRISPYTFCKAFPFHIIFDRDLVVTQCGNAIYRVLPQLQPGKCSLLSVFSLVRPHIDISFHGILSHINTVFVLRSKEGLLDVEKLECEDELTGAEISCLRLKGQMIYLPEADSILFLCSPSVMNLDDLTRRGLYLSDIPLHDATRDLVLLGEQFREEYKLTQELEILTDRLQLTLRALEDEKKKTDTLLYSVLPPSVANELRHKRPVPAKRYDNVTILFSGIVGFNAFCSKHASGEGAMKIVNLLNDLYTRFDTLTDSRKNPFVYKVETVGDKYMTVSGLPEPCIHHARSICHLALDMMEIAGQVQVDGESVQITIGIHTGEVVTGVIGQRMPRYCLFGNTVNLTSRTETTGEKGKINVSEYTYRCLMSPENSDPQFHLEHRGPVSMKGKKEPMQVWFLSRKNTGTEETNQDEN
Nature of the assay: Effect on a recombinant guanylate cyclase reporter cell line. As to conditions: recombinant guanylate cyclase reporter cell line (Wunder et al. 2005). The class given is cell-based. On the procedure:
B-2. Effect on a Recombinant Guanylate Cyclase Reporter Cell Line
The cellular activity of the compounds according to the invention is determined using a recombinant guanylate cyclase reporter cell line, as described in F. Wunder et al., Anal. Biochem. 339, 104-112 (2005).

For assay [2], the system named is aorta rings. Kind of assay: Vasorelaxant action in vitro (phenylephrine-contracted rabbit aorta rings). As to conditions: Oryctolagus cuniculus, phenylephrine-induced contraction, organ bath 37° C., 0.1% DMSO, read-out: IC50 (concentration needed to reduce the magnitude of the control contraction by 50%). On the procedure: B-1. Vasorelaxant Action In Vitro
Rabbits are stunned by a blow to the neck and exsanguinated. The aorta is removed, freed from adhering tissue and divided into rings of a width of 1.5 mm. The rings are placed individually under an initial tension in 5 ml organ baths with Krebs-Henseleit solution which is at 37° C., is gassed with carbogen and has the following composition (in each case mM): sodium chloride 119; potassium chloride: 4.8; calcium chloride dihydrate: 1; magnesium sulfate heptahydrate: 1.4; potassium dihydrogenphosphate: 1.2; sodium bicarbonate: 25; glucose: 10. The contractile force is determined with Statham UC2 cells, amplified and digitalized using A/D transducers (DAS 1802 HC, Keithley Instruments Munich), and recorded in parallel on linear recorders. To obtain a contraction, phenylephrine is added to the bath cumulatively in increasing concentration. After several control cycles, the substance to be investigated is added in each further run in increasing dosage in each case, and the height of the contraction achieved is compared with the height of the contraction reached in the last preceding run. This is used to calculate the concentration needed to reduce the magnitude of the control value by 50% (IC50 value). The standard administration volume is 5 μl; the DMSO content in the bath solution corresponds to 0.1%.

For `COC(=O)N(Cc1ccccc1)c1c(N)nc(-c2nc(Cc3ccccc3F)n3ncccc23)nc1N` [Example 15, Methyl benzyl{4,6-diamino-2-[7-(2-fluorobenzyl)imidazo[1,5-b]pyridazin-5-yl]pyrimidin-5-yl}carbamate formate], in assay [1], the “MEC (minimum effective concentration)” value turned out to be 0.01 µM. Moreover, the IC50 in assay [2] came out at 171 nM.
In the same order, the values of `CCOC(=O)Nc1c(N)nc(-c2nc(Cc3ccccc3F)n3ncccc23)nc1N` [Example 5, Ethyl {4,6-diamino-2-[7-(2-fluorobenzyl)imidazo[1,5-b]pyridazin-5-yl]pyrimidin-5-yl}carbamate formate] are 0.3 µM and 200 nM.
For `Nc1nc(N)nc(-c2nc(Cc3ccccc3F)n3ncccc23)n1` [Example 1, 6-[7-(2-Fluorobenzyl)imidazo[1,5-b]pyridazin-5-yl]-1,3,5-triazine-2,4-diamine formate] the same measures were 0.03 µM and 130 nM.
For `CCN(C(=O)OC)c1c(N)nc(-c2nc(Cc3ccccc3F)n3ncccc23)nc1N` [Example 8, Methyl {4,6-diamino-2-[7-(2-fluorobenzyl)imidazo[1,5-b]pyridazin-5-yl]pyrimidin-5-yl}ethylcarbamate formate] the same measures were 0.1 µM and 152 nM.
Consider `COC(=O)N(Cc1cccc(F)c1)c1c(N)nc(-c2nc(Cc3ccccc3F)n3ncccc23)nc1N` [Example 19, Methyl {4,6-diamino-2-[7-(2-fluorobenzyl)imidazo[1,5-b]pyridazin-5-yl]pyrimidin-5-yl}(3-fluorobenzyl)carbamate formate], for which the “MEC (minimum effective concentration)” value in assay [1] stood at 0.1 µM. For the same compound, the IC50 in assay [2] is 81 nM.
For `Nc1nc(-c2nc(Cc3ccccc3F)n3ncccc23)nc(N)c1NC(=O)OC1CCC1` [Example 11, Cyclobutyl {4,6-diamino-2-[7-(2-fluorobenzyl)imidazo[1,5-b]pyridazin-5-yl]pyrimidin-5-yl}carbamate formate] the same measures were 0.3 µM and 422 nM.
